In ChEMBL document CHEMBL1126388, “Synthesis of metabolically stable arylpiperazine 5-HT1A receptor agonists” (Bioorg Med Chem Lett, 1992):
pKi: −log10 of the molar value.

Key:
[1] = system: Mus musculus; experiment: Effective dose required for hypothermia activity after >120 min of oral administration at 4.0 degree F temp in mouse; assay type: functional; conditions: 2 h
[2] = system: Mus musculus; experiment: Effective dose required for hypothermia activity after subcutaneous administration at 6.4 degree F temp in mouse; assay type: functional; conditions: sc
[3] = target: T1, 5-hydroxytryptamine receptor 1A (Mus musculus, UniProt Q64264); experiment: Compound was tested for binding affinity to 5-hydroxytryptamine 1A receptor using [3H]8-OH-DPAT as a radioligand
T1 sequence (Q64264 whole entry): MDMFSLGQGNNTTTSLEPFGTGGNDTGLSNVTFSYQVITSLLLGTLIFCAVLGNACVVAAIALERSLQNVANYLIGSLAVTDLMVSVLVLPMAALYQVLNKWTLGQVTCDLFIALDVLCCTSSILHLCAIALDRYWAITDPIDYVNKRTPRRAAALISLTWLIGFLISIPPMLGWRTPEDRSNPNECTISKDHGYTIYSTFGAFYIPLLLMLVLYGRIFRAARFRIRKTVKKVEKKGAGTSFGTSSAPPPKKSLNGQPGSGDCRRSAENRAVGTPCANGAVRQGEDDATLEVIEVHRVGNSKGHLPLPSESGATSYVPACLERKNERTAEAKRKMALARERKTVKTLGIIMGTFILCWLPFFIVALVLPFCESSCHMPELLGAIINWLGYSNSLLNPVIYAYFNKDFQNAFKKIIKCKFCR

[4] = system: Mus musculus; experiment: Effective dose required for hypothermia activity after subcutaneous administration at 1.9 degree F temp in mouse; assay type: functional; conditions: sc
[5] = system: Mus musculus; experiment: Effective dose required for hypothermia activity after 20 min of oral administration at 2.9 degree F temp in mouse; assay type: functional
[6] = system: Mus musculus; experiment: Effective dose required for hypothermia activity after subcutaneous administration at 3.8 degree F temp in mouse; assay type: functional; conditions: sc

| pKi [3] | Compound | ED50 [1] | ED50 [2] | ED50 [4] | ED50 [5] | ED50 [6] |
| --- | --- | --- | --- | --- | --- | --- |
| 8.06 | O=C1c2ccccc2S(=O)(=O)N1C[C@H]1C[C@@H]1CN1CCN(c2ncccn2)CC1 | 0.19 µmol/kg | 0.0032 µmol/kg | – | – | – |
| 7.36 | O=C1c2ccccc2S(=O)(=O)N1C[C@@H]1C[C@@H]1CN1CCN(c2ncccn2)CC1 | – | – | > 0.055 µmol/kg | – | – |
| 7.92 | O=C1c2ccccc2S(=O)(=O)N1CCCCN1CCN(c2ncccn2)CC1 [IPSAPIRONE] | – | – | – | 0.23 µmol/kg | 0.00527 µmol/kg |
